# From US20240398817A1, “CARDIO- AND RENOSAFE ANTIDIABETIC THERAPY” (priority 2018, published 2024)
# System: patients with type 2 diabetes at high vascular risk
# Assay: Cardiovascular and Renal Outcomes Trial: linagliptin 5 mg once daily vs placebo on top of standard of care
# Format: in vivo
# Procedure: The effect of linagliptin on cardiovascular risk in adult patients with type 2 diabetes mellitus and with increased CV risk evidenced by a history of established macrovascular or renal disease (e.g. as defined herein) was evaluated in a multi-center, multi-national, randomized, double-blind parallel group trial. The trial compared the risk of experiencing a major adverse cardiovascular event (MACE) between linagliptin and placebo when these were added to and used concomitantly with standard of care treatments for diabetes (HbA1c), cardiovascular risk factors and renal disease.
# The primary endpoint in this trial was the time to first occurrence of three point (3P) MACE. A major adverse cardiac event was defined as a cardiovascular death or a nonfatal myocardial infarction (MI) or a nonfatal stroke. The statistical analysis plan tested for non-inferiority for the occurrence of (3P) MACE. […] The secondary endpoint was a renal composite, defined as renal death or sustained end stage renal disease or sustained decrease of 40% or more in eGFR.
# Type 2 diabetes patient with insufficient glycemic control (naïve or pre-treated with any antidiabetic background medication, excluding treatment with GLP-1 receptor agonists, DPP-4inhibitors or SGLT-2 inhibitors if ≥consecutive 7 days, e.g. having HbA1c 6.5-10%), and high risk of cardiovascular events, e.g. defined by: • albuminuria (micro or macro) and previous macrovascular disease: e.g. defined according to Condition I as indicated below; • and/or • impaired renal function: e.g. as defined according to Condition II as indicated below;
# Background and aims: People with type 2 diabetes (T2D) are at increased risk for hospitalization for heart failure (hHF), particularly in the setting of concomitant cardiovascular (CV) and/or kidney disease. […] Here we present analyses of HF outcomes with the DPP-4 inhibitor linagliptin (LINA) vs. placebo (PBO) from a Cardiovascular and Renal Outcomes Trial assessing cardiovascular safety and renal microvascular outcome in patients with type 2 diabetes at high vascular risk, a large CV outcomes trial that enrolled participants with T2D at high risk for hHF due to concomitant CV and/or chronic kidney disease. Materials and methods: People with T2D and concomitant CV and/or kidney disease were randomized to receive LINA 5 mg, or PBO once daily (1:1), on top of standard of care. All hHF, CV outcomes, and deaths were centrally adjudicated, with individual and composite HF-related outcomes analyses comparing LINA vs. placebo. Investigator-reported HF-related adverse events, whether or not confirmed by adjudication, were also analyzed. A Cox proportional hazards model adjusting for region and history of HF was used for analyses of first events. Recurrent hHF events were analyzed using a negative binomial model.
# Methods: The present Cardiovascular and Renal Outcomes Trial randomized people with T2D and i) concomitant CV disease with UACR >30 mg/g or ii) prevalent CKD (i.e. GFR <45 ml/min/1.73m2 and/or UACR >200 mg/g) to receive the DPP-4 inhibitor linagliptin (5 mg) or placebo once daily in a double-blind fashion. The primary CV endpoint was 3P-MACE, with a key secondary kidney endpoint (adjudicated ESKD, renal death, or sustained ≥40% decrease in eGFR from baseline) and other renal outcomes (including albuminuria and eGFR slope) also assessed. Subgroups were assessed by baseline kidney function (eGFR ≥/<45 ml/min/1.73m2and eGFR ≥/<30, 45 or 60 ml/min/1.73m2).
# Adults with type 2 diabetes, HbA1c 6.5-10.0% inclusive, and high CV risk were eligible for inclusion. […] Macrovascular disease eligibility criteria was based on documented and confirmed history of myocardial infarction, coronary artery disease, stroke, carotid artery disease, or peripheral artery disease. Participants with end-stage kidney disease (ESKD), defined as eGFR <15 or requiring maintenance dialysis, were excluded.
# [1] = eGFR ≥45 to <60 mL/min/1.73 m^2
smiles,measurement,setting,value
"CC#CCn1c(N2CCC[C@@H](N)C2)nc2c1c(=O)n(Cc1nc(C)c3ccccc3n1)c(=O)n2C [Linagliptin, 1-[(4-methyl-quinazolin-2-yl)methyl]-3-methyl-7-(2-butyn-1-yl)-8-(3-(R)-amino-piperidin-1-yl)-xanthine]","Renal death, sustained ESKD, or ≥ doubling of se-creatinine: n",eGFR ≥ 45 (n = 3979),54
same,"Renal death, sustained ESKD, or ≥ doubling of se-creatinine: rate/100 patient-years",eGFR ≥ 45 (n = 3979),1.38 per 100 patient-years
same,3-point MACE: hazard ratio vs placebo,[1],1.12
same,3-point MACE: patients with event/patients analyzed,[1],81/690
same,Key secondary kidney outcome: hazard ratio vs placebo,[1],0.94
same,Key secondary kidney outcome: patients with event/patients analyzed,[1],51/690
same,3-point MACE: hazard ratio vs placebo,eGFR ≥60 mL/min/1.73 m^2,0.96
same,3-point MACE: patients with event/patients analyzed,eGFR ≥60 mL/min/1.73 m^2,103/1294
same,Key secondary kidney outcome: hazard ratio vs placebo,eGFR ≥60 mL/min/1.73 m^2,1.46
same,Key secondary kidney outcome: patients with event/patients analyzed,eGFR ≥60 mL/min/1.73 m^2,54/1294
same,Non-fatal MI as component of 3-point MACE primary outcome: %,first event of composite,(4.4) %
same,Non-fatal MI as component of 3-point MACE primary outcome: no.,first event of composite,154
same,Non-fatal stroke as component of 3-point MACE primary outcome: %,first event of composite,(1.7) %
same,Non-fatal stroke as component of 3-point MACE primary outcome: no.,first event of composite,59
same,4-point MACE (3-point MACE or hospitalization for unstable angina): no.,in vivo,463
same,4-point MACE: %,in vivo,(13.3) %
same,4-point MACE: hazard ratio vs placebo,in vivo,1.00
same,4-point MACE: rate/1000 patient-years,in vivo,62.0 per 1000 patient years
same,"Acute pancreatitis, adjudication confirmed: %",in vivo,0.3%
same,"Acute pancreatitis, adjudication confirmed: N",in vivo,9^1
same,Adverse events leading to discontinuation: %,in vivo,10.3%
same,Adverse events leading to discontinuation: N,in vivo,359
same,Albuminuria progression: rate/100 patient-years,in vivo,21.36 per 100 patient-years
same,Albuminuria progression: rate/1000 patient-years,in vivo,213.6 per 1000 patient years
same,All cancers (malignancies): %,in vivo,3.3%
same,All cancers (malignancies): N,in vivo,116
same,Angioedema events with concomitant ACE/ARB use at baseline: %,in vivo,0.45%
same,Angioedema events with concomitant ACE/ARB use at baseline: N,in vivo,13
same,Any adverse events: %,in vivo,77.2%
same,"Changes in body weight or waist circumference vs placebo, in words",in vivo,No clinically meaningful differences
same,"Changes in weight, systolic and diastolic blood pressure and LDL/HDL cholesterol vs placebo, in words",in vivo,no different between groups
same,"Chronic pancreatitis, adjudication confirmed: %",in vivo,0.1%
same,"Chronic pancreatitis, adjudication confirmed: N",in vivo,2
same,Colon cancer: %,in vivo,0.2%
same,Colon cancer: N,in vivo,6
same,Composite microvascular endpoint (renal and eye outcomes): number of patients,in vivo,785
same,Composite microvascular endpoint: hazard ratio (95% CI) vs placebo,in vivo,0.86
same,Composite microvascular endpoint: rate/1000 patient-years,in vivo,221.4 per 1000 patient years
same,Composite ocular endpoint: hazard ratio vs placebo,in vivo,0.73
same,Composite ocular endpoint: number of patients,in vivo,36
same,Composite ocular endpoint: rate/1000 patient-years,in vivo,4.7 per 1000 patient years
same,"Composite renal endpoint 2 (50% eGFR) and composite renal endpoint 3 (30% eGFR with eGFR <60) vs placebo, in words",in vivo,No significant difference
same,Confirmed hypoglycemic adverse events with plasma glucose <54 mg/dl or severe event: %,in vivo,15.9%
same,Confirmed hypoglycemic adverse events with plasma glucose <54 mg/dl or severe event: N,in vivo,557
same,"Contributing to composite microvascular outcome: patients with retinal laser coagulation or anti-VEGF injection for diabetic retinopathy, %",in vivo,0.2%
same,"Contributing to composite microvascular outcome: patients with sustained >50% eGFR decrease, %",in vivo,0.6%
same,"Contributing to composite microvascular outcome: patients with sustained ESKD, %",in vivo,0.3%
same,"Contributing to composite microvascular outcome: patients with vitreous haemorrhage, %",in vivo,0.1%
same,"Contributing to composite ocular outcome: patients with anti-VEGF injection for diabetic retinopathy, %",in vivo,0.3%
same,"Contributing to composite ocular outcome: patients with diabetes related blindness, %",in vivo,0.1%
same,"Contributing to composite ocular outcome: patients with retinal laser coagulation, %",in vivo,0.2%
same,"Contributing to composite ocular outcome: patients with vitreous haemorrhage, %",in vivo,0.5%
same,Coronary revascularization procedure: %,in vivo,(4.6) %
same,Coronary revascularization procedure: hazard ratio vs placebo,in vivo,1.07
same,Coronary revascularization procedure: no.,in vivo,160
same,Coronary revascularization procedure: rate/1000 patient-years,in vivo,21.2 per 1000 patient years
same,"Difference between treatment groups in HbA1c changes from baseline over time, in words",in vivo,significant up to the Week 132 visit
same,"Fasting plasma glucose (FPG) vs placebo, in words",in vivo,significant differences observed between the treatment groups up to Week 84
same,Fatal myocardial infarction: %,in vivo,(0.3) %
same,Fatal myocardial infarction: hazard ratio vs placebo,in vivo,0.78
same,Fatal myocardial infarction: no.,in vivo,11
same,Fatal myocardial infarction: rate/1000 patient-years,in vivo,1.4 per 1000 patient years
same,Fatal or non-fatal myocardial infarction: %,in vivo,(4.7) %
same,Fatal or non-fatal myocardial infarction: hazard ratio vs placebo,in vivo,1.12
same,Fatal or non-fatal myocardial infarction: no.,in vivo,165
same,Fatal or non-fatal myocardial infarction: rate/1000 patient-years,in vivo,21.8 per 1000 patient years
same,Fatal or non-fatal stroke: %,in vivo,(2.3) %
same,Fatal or non-fatal stroke: hazard ratio vs placebo,in vivo,0.91
same,Fatal or non-fatal stroke: no.,in vivo,81
same,Fatal or non-fatal stroke: rate/1000 patient-years,in vivo,10.6 per 1000 patient years
same,Fatal stroke: %,in vivo,(0.5) %
same,Fatal stroke: hazard ratio vs placebo,in vivo,1.05
same,Fatal stroke: no.,in vivo,17
same,Fatal stroke: rate/1000 patient-years,in vivo,2.2 per 1000 patient years
same,Gastric cancer: %,in vivo,0.0%
same,Gastric cancer: N,in vivo,0
same,Hospitalization for heart failure or cardiovascular death: %,in vivo,(11.6) %
same,Hospitalization for heart failure or cardiovascular death: hazard ratio vs placebo,in vivo,0.94
same,Hospitalization for heart failure or cardiovascular death: no.,in vivo,406
same,Hospitalization for heart failure or cardiovascular death: rate per 100 person-years,in vivo,5.37 per 100 person-years
same,Hospitalization for heart failure or cardiovascular death: rate/1000 patient-years,in vivo,53.7 per 1000 patient years
same,Hospitalization for unstable angina: %,in vivo,(1.2) %
same,Hospitalization for unstable angina: hazard ratio vs placebo,in vivo,0.87
same,Hospitalization for unstable angina: no.,in vivo,42
